# In PMC4332636, “In Vitro and In Vivo Toxicity Profiling of Ammonium-Based Deep Eutectic Solvents” (PLoS ONE, 2015):
# Read-outs that look alike come from different tables or passages of the source.
# What was measured:
# [1] = set-up: method as in PMID 18512987, PMID 19661306; settings: previously reported; cited from earlier work
# ICR mice = experiment: Acute toxicity (LD50) in ICR mice; assay type: in vivo; settings: mortality within 14 days
# Description: (§1) The acute toxicity of the compounds was evaluated using six Imprinting Control Region (ICR) mice per groups at 8 to 12 weeks of age, with an average body weight of 25.6 g. The animals were assigned equally into 4 groups labeled as vehicle (dH2O), high dose (20 g/kg), medium dose (10 g/kg) and low dose (5 g/kg) of the compounds. Prior to administration, the animals were fasted (food but not water) overnight and for 3 to 4 h after compounds administration to eliminate any food inside the gastrointestinal tract that might complicate absorption of the test substance. […] Animals were euthanized by CO2 asphyxiation on 15th day, and serum biochemical and histological (liver and kidney) parameters were determined following the standard method. The mortality of the mice were recorded within 14 days and used to calculate the LD50 for each compound. The mice used were housed in specific pathogen free facility at the University of Malaya. This work was designed to minimize animal suffering and number of animals used, and has been approved by the Faculty of Medicine Animal Care and Use Committee (FOMIACUC, Approval No: 2014-05-07/PHAR/R/CYL) at University of Malaya. The work was reported according to ARRIVE guideline.
# [2] = Acute toxicity (LD50) in ICR mice; assay type: in vivo; settings: mouse, in vivo, oral, mortality within 14 days
# Description: as §1
# [3] = ORAC antioxidant activity assay
# Description: Chemicals. Fluorescein sodium salt, AAPH (2,2′-Azobis(2-methylpropionamidine) dihydrochloride), quercetin dehydrate and trolox ((±)-6-Hydroxy-2,5,7,8-tetramethylchromane-2-carboxylic acid) were purchased from Sigma-Aldrich.
# ORAC assay. ORAC (oxygen radical […]) assay was done based on procedures described previously with slight modifications. Compounds were diluted to a final concentration of 100μg/mL, with total reaction volume of 200μL. The assay was performed in a 96-well black microplate, with 25μL of samples, standard (trolox), blank (solvent/PBS) or positive control (quercetin). Subsequently, 150μL of working fluorescein solution was added to each well of assay plate. The plate was incubated at 37°C for at least 5 min. 25μL of AAPH working solution was then added to the wells, making up a total volume of 200μL. Fluorescence was recorded with excitation wavelength of 485nm and emission wavelength of 538nm. […] The values were expressed as trolox equivalent (TE).
# [4] = system: human oral keratinocyte cell line (OKF6); experiment: MTT cell viability assay, OKF6; assay type: cell-based; settings: OKF6, 48 h treatment
# Source text: (§2) Human prostate cancer cell line (PC3), human malignant melanoma cell line (A375), human liver hepatocellular cell line (HepG2) and human colon adenocarcinoma cell line (HT29) were purchased from American Type Culture Collection (ATCC, Manassas, VA). The human breast cancer cell line (MCF-7) was acquired from Cell Lines Service (300273; Eppelheim, Germany), human oral keratinocyte cell line (OKF6) cells and carcinoma-derived human oral keratinocyte cells (H413) (Sigma-aldrich, Saint Louis, MO) were received from Professor Ian Charles Paterson. MCF-7, A375, HT29 and HepG2 cells were grown in Dulbecco’s Modified Eagle Medium (DMEM, Life Technologies, Inc., Rockville, MD) supplemented with 10% heat-inactivated fetal bovine serum (FBS, Sigma-Aldrich, St. Louis, MO), 1% penicillin and streptomycin. PC3 cells were grown in Roswell Park Memorial Institute medium (RPMI) supplemented with 10% heat-inactivated fetal bovine serum (FBS, Sigma-Aldrich, St. Louis, MO), 1% penicillin and streptomycin. OKF6 cells were grown in Keratinocyte Serum-Free Medium (KSFM), supplemented with 10% heat-inactivated fetal bovine serum (FBS, Sigma-Aldrich, St. Louis, MO), 1% penicillin and streptomycin. H413 cells were grown in Dulbecco's Modified Eagle Medium/Ham's F-12 (DMEM/F12) supplemented with 10% heat-inactivated fetal bovine serum (FBS, Sigma-Aldrich, St. Louis, MO), 1% penicillin and streptomycin. Cells were cultured in tissue culture flasks (Corning, USA) and were kept in an incubator at 37°C in a humidified atmosphere with 5% CO2. For experimental purposes, cells in exponential growth phase (approximately 70–80% confluency) were used.
# (§3) The influence of the solvents was determined by MTT assay (Mosmann, 1983). MCF-7, A375, HT29, HepG2, PC3, OKF6 and H413 cells were treated for 48 h. On the first day, 1.0 × 10^4 cells were seeded into a 96-well plate for 24 h incubation assay. The cells were incubated overnight at 37°C in 5% CO2. On the next day, the cells were treated with a two-fold dilution series of six concentrations of the solvents, and then incubated at 37°C in 5% CO2 for 48 h. MTT solution (4,5-dimethylthiazol-2-yl-2,5-diphenyltetrazoliumbromide) was added at 2 mg/mL, and after 2 h of incubation at 37°C in 5% CO2, DMSO was added to dissolve the formazan crystals. The plates were then read in Chameleon multitechnology microplate reader (Hidex, Turku, Finland) at 570 nm absorbance. The cell viability percentage after exposure to the solvents for 48 h was calculated by the previously described method. The ratio of the absorbance of treated cells to the absorbance of DMSO-treated control cells was determined as cell viability (percentage).
# [5] = system: human colon adenocarcinoma cell line (HT29); experiment: MTT cell viability assay, HT29; assay type: cell-based
# Source text: as §2, §3
# [6] = system: human malignant melanoma cell line (A375); experiment: MTT cell viability assay, A375; assay type: cell-based
# Source text: as §2, §3
# [7] = system: human breast cancer cell line (MCF-7); experiment: MTT cell viability assay, MCF-7; assay type: cell-based
# Source text: as §2, §3
# [8] = system: carcinoma-derived human oral keratinocyte cells (H413); experiment: MTT cell viability assay, H413; assay type: cell-based; settings: H413, 48 h treatment
# Source text: as §2, §3
# [9] = system: human prostate cancer cell line (PC3); experiment: MTT cell viability assay, PC3; assay type: cell-based; settings: PC3, 48 h treatment
# Source text: as §2, §3
# [10] = system: human liver hepatocellular cell line (HepG2); experiment: MTT cell viability assay, HepG2; assay type: cell-based; settings: HepG2, 48 h treatment
# Source text: as §2, §3
# HepG2 = settings: on HepG2; cited from earlier work
Molecule,IC50 [4] [µg/mL],"IC50 ([5]; HT29, 48 h treatment) [µg/mL]","IC50 ([6]; A375, 48 h treatment) [µg/mL]","IC50 ([7]; MCF-7, 48 h treatment) [µg/mL]",IC50 [8] [µg/mL],IC50 [9] [µg/mL],IC50 [10] [µg/mL],further results
4-Hydroxy tamoxifen,,,,,,,,selectivity index [1]: less than 2
"OCCO [Pure EG, ethylene glycol]",,,,,,,,LD50 (ICR mice): 9710 ± 1950 mg/kg
"OCC(O)CO [Pure Gl, glycerine]",,,,,,,,LD50 at 14 days [2]: 20600 ± 2160 mg/kg
"OCCOCCOCCO [Pure TEG, triethylene glycol]",,,,,,,,LD50 at 14 days [2]: 17000 ± 2040 mg/kg
"NC(N)=O [Pure U, urea]",,,,,,,,LD50 (ICR mice): >20000 mg/kg
"O=c1c(O)c(-c2ccc(O)c(O)c2)oc2cc(O)cc(O)c12 [Quercetin, quercetin dehydrate]",,,,,,,,net AUC ([3]; compounds at 100μg/mL): 6353346; mM of Trolox per 100μg/mL ([3]; trolox equivalent): 0.02141 mM of Trolox per 100μg/mL; μM of Trolox per 100μg/mL ([3]; trolox equivalent): 21.411 μM of Trolox per 100μg/mL
"C[N+](C)(C)CCO.[Cl-] [Solvent 2, choline chloride]",26.53 ± 1.97,13.41 ± 1.73,7.584 ± 2.31,8.95 ± 0.98,19.61 ± 4.19,11.94 ± 1.35,14.26 ± 1.43,
"OCC(O)CO [Solvent 3, glycerine]",129.31 ± 8.23,63.80 ± 7.23,67.65 ± 6.83,74.73 ± 6.67,101.02 ± 18.54,42.38 ± 3.96,68.85 ± 11.74,
"C[N+](C)(C)CCO.[Cl-] [Solvent 6, choline chloride]",24.58 ± 2.81,11.79 ± 0.43,8.64 ± 1.75,13.05 ± 2.09,21.84 ± 2.65,13.60 ± 2.94,12.69 ± 1.63,
"OCCO [Solvent 7, ethylene glycol]",75.62 ± 6.33,43.72 ± 3.97,40.59 ± 5.27,53.91 ± 6.17,62.29 ± 8.94,32.48 ± 1.06,44.33 ± 5.86,
"C[N+](C)(C)CCO.[Cl-] [Solvent 10, choline chloride]",32.49 ± 3.41,18.75 ± 1.65,10.54 ± 0.34,12.51 ± 0.71,38.41 ± 4.03,28.88 ± 2.64,25.99 ± 1.85,
"NC(N)=O [Solvent 11, urea]",28.22 ± 1.05,13.93 ± 2.16,11.21 ± 1.38,,20.22 ± 1.69,23.09 ± 5.22,24.23 ± 4.02,
"C[N+](C)(C)CCO.[Cl-] [Solvent 14, choline chloride]",21.74 ± 1.04,8.939 ± 1.43,12.75 ± 1.23,12.23 ± 0.39,21.49 ± 0.57,10.18 ± 0.95,14.60 ± 2.53,
"OCCOCCOCCO [Solvent 15, triethylene glycol]",,,,,,,,"IC50 ([4]; Homo sapiens, read-out: IC50): 29.8 ± 1.45 µg/mL; IC50 ([5]; Homo sapiens, HT-29, HT29, 48 h treatment, read-out: IC50): 20.2 ± 2.75 µg/mL; IC50 ([6]; Homo sapiens, A-375, A375, 48 h treatment, read-out: IC50): 14.6 ± 0.64 µg/mL; IC50 ([7]; Homo sapiens, MCF7, MCF-7, 48 h treatment, read-out: IC50): 18.3 ± 2.15 µg/mL; IC50 ([8]; Homo sapiens, Keratinocyte, read-out: IC50): 32.1 ± 3.1 µg/mL; IC50 ([9]; Homo sapiens, read-out: IC50): 23.1 ± 1.32 µg/mL; IC50 ([10]; Homo sapiens, read-out: IC50): 33.9 ± 4.94 µg/mL"
"CCCCCCCCCC[N+](C)(C)CCCCCCCCCC [[DDA][Sac], didecyldimethylammonium saccharinate]",,,,,,,,IC50 (HepG2): 4.8 µM
C[C@@]12CCC[C@]3(C)c4cc5c(O)ccc(O)c5cc4C(=O)[C@](O)(OC1)[C@H]23 [alisiaquinol],,,,,,,,selectivity index [1]: less than 2
CC/C(=C(/CCN1CCCCC1)c1ccc(O)cc1)c1ccc(O)cc1 [piperidinyl-diethylstilbestrol],,,,,,,,selectivity index [1]: less than 2
